Assay [1] deals with Peritoneal macrophage. Briefly: Antiinflammatory activity in ICR mouse primary peritoneal macrophages assessed as inhibition of LPS-induced TNFalpha production at 20 uM preincubated for 60 mins followed by LPS stimulation and measured after 24 hrs by ELISA relative to control. It counts as functional.
In assay [2] the test system is Peritoneal macrophage. As to the kind of experiment: Antiinflammatory activity in ICR mouse primary peritoneal macrophages assessed as inhibition of LPS-induced IL-6 production at 20 uM preincubated for 60 mins followed by LPS stimulation and measured after 24 hrs by ELISA relative to control. It counts as functional. In general terms: In an ELISA, binding on a coated surface is turned into a signal by an enzyme label.

The structures appear in SMILES notation. The source made the active and inactive calls. No cut-off for these calls is given here.

A word on the inhibition: it is the change of the read-out against control, counted positive when it falls. Turning to `COc1ccc(CN2CCN(CCC(=O)Nc3nc(-c4ccccc4)cs3)CC2)cc1`, the figures for the inhibition at 20 µM in the assay on Peritoneal macrophage [1] and with Peritoneal macrophage [2] were 40.2% and 75.3%, respectively.
Regarding `O=C(CCN1CCN(Cc2ccc3ccccc3c2)CC1)Nc1nc(-c2ccccc2)cs1`, the inhibition at 20 µM with Peritoneal macrophage [1] is 2.41%; with Peritoneal macrophage [2], 18.3%.
`O=C(CCN1CCN(Cc2cccc(F)c2)CC1)Nc1nc(-c2ccccc2)cs1`: the values for the inhibition at 20 µM in the assay on Peritoneal macrophage [1] and in the assay on Peritoneal macrophage [2] were 40.5% and 68.5%, respectively.
On to `O=C(CCN1CCN(S(=O)(=O)c2ccccc2)CC1)Nc1nc(-c2ccccc2)cs1`, for which the inhibition at 20 µM in the assay with Peritoneal macrophage [1] turned out to be 17.6%; in the assay on Peritoneal macrophage [2], 29.9%.
As to `COc1ccc(-c2csc(NC(=O)CCN3CCN(Cc4cccc([N+](=O)[O-])c4)CC3)n2)cc1`, the inhibition at 20 µM is 73.8% in the assay with Peritoneal macrophage [1] and 82% with Peritoneal macrophage [2].
As to `O=C(CCN1CCN(Cc2ccc(Cl)cc2)CC1)Nc1nc(-c2ccccc2)cs1`, the inhibition at 20 µM in the assay on Peritoneal macrophage [1] was determined as 52.8%; in the assay on Peritoneal macrophage [2], 63.4%.
On the same counts, the results for `COc1ccc(S(=O)(=O)N2CCN(CCC(=O)Nc3nc(-c4ccccc4)cs3)CC2)cc1OC` are 37.2% and 49.5%.
For `O=C(CCN1CCN(Cc2cccc(Cl)c2)CC1)Nc1nc(-c2ccccc2)cs1`, the figures for the inhibition at 20 µM in the assay with Peritoneal macrophage [1] and with Peritoneal macrophage [2] were 48.8% and 74.5%, respectively.
`COc1cccc(CN2CCN(CCC(=O)Nc3nc(-c4ccccc4)cs3)CC2)c1`: the inhibition at 20 µM with Peritoneal macrophage [1] turned out to be 36.1%; in the assay with Peritoneal macrophage [2], 53.8%.
In the case of `Cc1ccc(-c2csc(NC(=O)CCN3CCN(Cc4cccc([N+](=O)[O-])c4)CC3)n2)cc1`, the inhibition at 20 µM with Peritoneal macrophage [1] worked out at 79%; with Peritoneal macrophage [2], 75.1%.
For `N#Cc1ccc(CN2CCN(CCC(=O)Nc3nc(-c4ccccc4)cs3)CC2)cc1`, the inhibition at 20 µM in the assay with Peritoneal macrophage [1] turned out to be 33.7%; in the assay on Peritoneal macrophage [2], 67.3%.
On the same counts, the results for `O=C(CCN1CCN(Cc2cccc([N+](=O)[O-])c2)CC1)Nc1nc(-c2ccc(Cl)cc2)cs1` are 58.3% and 77.6%.
As for `Nc1cccc(CN2CCN(CCC(=O)Nc3nc(-c4ccccc4)cs3)CC2)c1`, the inhibition at 20 µM worked out at 13.6% in the assay on Peritoneal macrophage [1] and 11.5% in the assay on Peritoneal macrophage [2].
On to `CCOc1ccc(-c2csc(NC(=O)CCN3CCN(Cc4cccc([N+](=O)[O-])c4)CC3)n2)cc1`, for which the inhibition at 20 µM worked out at 74.3% with Peritoneal macrophage [1] and 85.3% in the assay on Peritoneal macrophage [2].
`Nc1ccc(CN2CCN(CCC(=O)Nc3nc(-c4ccccc4)cs3)CC2)cc1`: the inhibition at 20 µM with Peritoneal macrophage [1] turned out to be 10.1%; with Peritoneal macrophage [2], 45.8%.
As to `O=C(CCN1CCN(Cc2cccc([N+](=O)[O-])c2)CC1)Nc1nc(-c2ccc(F)c(F)c2)cs1`, the inhibition at 20 µM in the assay on Peritoneal macrophage [1] was found to be 61.8%; with Peritoneal macrophage [2], 86.7%.
Consider `Cc1ccc(CN2CCN(CCC(=O)Nc3nc(-c4ccccc4)cs3)CC2)cc1`, for which the inhibition at 20 µM turned out to be 27.1% in the assay with Peritoneal macrophage [1] and 67.6% in the assay on Peritoneal macrophage [2].
For `O=C(CCN1CCN(S(=O)(=O)c2cccc(Cl)c2)CC1)Nc1nc(-c2ccccc2)cs1`, in that order: 32.8% and 61.1%.
On the same counts, the results for `O=C(CCN1CCN(Cc2cccc([N+](=O)[O-])c2)CC1)Nc1nc(-c2ccc(Br)cc2)cs1` are 71.9% and 81%.
For the molecule `N#Cc1cccc(CN2CCN(CCC(=O)Nc3nc(-c4ccccc4)cs3)CC2)c1`, the inhibition at 20 µM was 52.3% in the assay with Peritoneal macrophage [1] and 78.3% with Peritoneal macrophage [2].
With `O=C(CCN1CCN(S(=O)(=O)c2ccc([N+](=O)[O-])cc2)CC1)Nc1nc(-c2ccccc2)cs1`, the values for the inhibition at 20 µM in the assay on Peritoneal macrophage [1] and with Peritoneal macrophage [2] were 38.6% and 40.6%, respectively.
As to `O=C(CCN1CCN(Cc2cccc([N+](=O)[O-])c2)CC1)Nc1nc(-c2ccc(F)cc2)cs1`, the inhibition at 20 µM was 65.6% in the assay on Peritoneal macrophage [1] and 86.4% in the assay with Peritoneal macrophage [2].
For `O=C(CCN1CCN(Cc2cccc([N+](=O)[O-])c2)CC1)Nc1nc(-c2cccc([N+](=O)[O-])c2)cs1`, in that order: 51.2% and 76.3%.
In the case of `O=C(CCN1CCN(Cc2cccc([N+](=O)[O-])c2)CC1)Nc1nc(C2CCC2)cs1`, the inhibition at 20 µM was 61.4% with Peritoneal macrophage [1] and 66.3% in the assay on Peritoneal macrophage [2].
In the case of `O=C(CCN1CCN(S(=O)(=O)c2ccc(C(F)(F)F)cc2)CC1)Nc1nc(-c2ccccc2)cs1`, the inhibition at 20 µM in the assay with Peritoneal macrophage [1] stood at 2.54%. Further, the inhibition entry in the assay on Peritoneal macrophage [2] is “inactive”.
In the case of `COc1cc(CN2CCN(CCC(=O)Nc3nc(-c4ccccc4)cs3)CC2)cc(OC)c1`, the inhibition at 20 µM came out at 34.2% in the assay on Peritoneal macrophage [1] and 57% with Peritoneal macrophage [2].
For `COc1ccc(S(=O)(=O)N2CCN(CCC(=O)Nc3nc(-c4ccccc4)cs3)CC2)cc1`, in that order: 33.1% and 35.6%.
On the same counts, the results for `O=C(CCN1CCN(Cc2ccc([N+](=O)[O-])cc2)CC1)Nc1nc(-c2ccccc2)cs1` are 56.7% and 76.8%.
As for `O=C(CCN1CCN(Cc2c(Cl)cccc2Cl)CC1)Nc1nc(-c2ccccc2)cs1`, the inhibition at 20 µM in the assay on Peritoneal macrophage [1] was 37.1%; in the assay on Peritoneal macrophage [2] it was 73.8%.
As to `CC(C)(C)c1ccc(CN2CCN(CCC(=O)Nc3nc(-c4ccccc4)cs3)CC2)cc1`, the inhibition at 20 µM was 12% in the assay with Peritoneal macrophage [1] and 51.8% with Peritoneal macrophage [2].
Consider `O=C(CCN1CCN(Cc2cccc([N+](=O)[O-])c2)CC1)Nc1nc(-c2ccccc2)cs1`, for which the results for the inhibition at 20 µM in the assay on Peritoneal macrophage [1] and with Peritoneal macrophage [2] were 64.2% and 81.5%, respectively.
Turning to `O=C(CCN1CCN(Cc2cccc([N+](=O)[O-])c2)CC1)Nc1nc(-c2cccc(Br)c2)cs1`, the inhibition at 20 µM stood at 52.5% in the assay on Peritoneal macrophage [1] and 73% in the assay on Peritoneal macrophage [2].
As to `COC(=O)c1csc(NC(=O)CCN2CCN(Cc3cccc([N+](=O)[O-])c3)CC2)n1`, the inhibition at 20 µM in the assay on Peritoneal macrophage [1] was 31.7%; with Peritoneal macrophage [2], 56.3%.
Consider `O=C(CCN1CCN(Cc2cccc([N+](=O)[O-])c2)CC1)Nc1nc2ccccc2s1`, for which the inhibition at 20 µM stood at 63.6% in the assay on Peritoneal macrophage [1] and 64.2% in the assay on Peritoneal macrophage [2].
For `CN1CCN(CCC(=O)Nc2nc(-c3ccccc3)cs2)CC1`, the inhibition entry in the assay with Peritoneal macrophage [1] and in the assay on Peritoneal macrophage [2] was “inactive” each time.
With `O=C(CCN1CCN(CCc2ccccc2)CC1)Nc1nc(-c2ccccc2)cs1`, the inhibition at 20 µM came out at 9.1% in the assay with Peritoneal macrophage [1] and 27.4% in the assay on Peritoneal macrophage [2].
`O=C(CCN1CCN(Cc2cccc([N+](=O)[O-])c2)CC1)Nc1nc(-c2ccc(C3CCCCC3)cc2)cs1`: the inhibition at 20 µM in the assay with Peritoneal macrophage [1] was determined as 19.8%; in the assay with Peritoneal macrophage [2], 28.5%.
Consider `O=C(CCN1CCN(S(=O)(=O)c2cc(Cl)cc(Cl)c2)CC1)Nc1nc(-c2ccccc2)cs1`, for which the inhibition at 20 µM with Peritoneal macrophage [1] worked out at 49.1%; in the assay with Peritoneal macrophage [2], 55.6%.
For the molecule `O=C(CCN1CCN(S(=O)(=O)c2ccc(Cl)cc2)CC1)Nc1nc(-c2ccccc2)cs1`, the inhibition at 20 µM amounted to 37.6% in the assay on Peritoneal macrophage [1] and 70.3% in the assay on Peritoneal macrophage [2].
On the same counts, the results for `O=C(CCN1CCN(Cc2ccc(F)cc2)CC1)Nc1nc(-c2ccccc2)cs1` are 47.9% and 70.9%.
On to `O=C(CCN1CCN(Cc2cccc([N+](=O)[O-])c2)CC1)Nc1nc(-c2ccco2)cs1`, for which the results for the inhibition at 20 µM in the assay on Peritoneal macrophage [1] and with Peritoneal macrophage [2] were 65.2% and 78.7%, respectively.
On to `O=C(CCN1CCN(Cc2ccc(C(F)(F)F)cc2)CC1)Nc1nc(-c2ccccc2)cs1`, for which the inhibition at 20 µM is 55.3% in the assay with Peritoneal macrophage [1] and 69% in the assay on Peritoneal macrophage [2].

(Values after ChEMBL document CHEMBL4325844, “Development of 2-amino-4-phenylthiazole analogues to disrupt myeloid differentiation factor 88 and prevent inflammatory responses in acute lung injury” (Eur J Med Chem, 2019).)
